Experimental findings from patent US7049317B2, “CCR-3 receptor antagonists” (Syntex (U.S.A.) LLC, priority 2001, dated 2006) are described below.

Data set [1] deals with T1, CCR-3 receptor (Homo sapiens, UniProt P51677).
T1 construct: expressed in transfected cells; host or cells: L1.2 cells (murine pre-B lymphoma line)
T1 sequence (P51677 1-355): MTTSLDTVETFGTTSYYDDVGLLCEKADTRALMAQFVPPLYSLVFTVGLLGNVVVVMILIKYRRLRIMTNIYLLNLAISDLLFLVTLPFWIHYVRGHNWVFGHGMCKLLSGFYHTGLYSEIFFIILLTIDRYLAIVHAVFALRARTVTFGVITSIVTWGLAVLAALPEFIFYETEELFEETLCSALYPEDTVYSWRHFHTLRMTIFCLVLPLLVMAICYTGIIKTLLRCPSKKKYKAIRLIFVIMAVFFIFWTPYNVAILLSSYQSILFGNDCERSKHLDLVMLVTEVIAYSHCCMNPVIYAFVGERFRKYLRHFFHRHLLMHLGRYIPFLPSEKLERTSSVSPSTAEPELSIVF
In words: CCR-3 Receptor Binding Assay, inhibition of 125I eotaxin binding to CCR-3 L1.2 transfectant cells. As to conditions: 1 hour at room temperature. As for the experimental part: The CCR-3 antagonistic activity of the compounds of the invention was determined by their ability to inhibit the binding of ^125I eotaxin to CCR-3 L1.2 transfectant cells (see Ponath, P. D. et al., J. Exp. Med., Vol. 183, 2437–2448, (1996)).
The assay was performed in Costar 96-well polypropylene round bottom plates. Test compounds were dissolved in DMSO and then diluted with binding buffer (50 mM HEPES, 1 mM CaCl2, 5 mM MgCl2, 0.5% bovine serum albumin (BSA), 0.02% sodium azide, pH 7.24) such that the final DMSO concentration was 2%. 25 μl of the test solution or only buffer with DMSO (control samples) was added to each well, followed by the addition of 25 μl of ^125I-eotaxin ([…]) (NEX314, New England Nuclear, Boston, Mass.) and 1.5×10^5 of the CCR-3 L1.2 transfected cells in 25 μl binding buffer. The final reaction volume was 75 μl.
After incubating the reaction mixture for 1 hour at room temperature, the reaction was terminated by filtering the reaction mixture through polyethylenimine treated Packard Unifilter GF/C filter plate (Packard, Chicago, Ill.). The filters were washed four times with ice cold wash buffer containing 10 mm HEPES and 0.5M sodium chloride (pH 7.2) and dried at 65° C. for approximately 10 minutes. 25 μl/well of Microscint-20® scintillation fluid (Packard) was added and the radioactivity retained on the filters was determined by using the Packard TopCount®

As to `COc1cc(NC(=O)N[C@@H]2CCC[C@H]2N(C)CCCc2ccc(Cl)cc2)cc(OC)c1OC.Cl` (racemic), the melting point – broadly, the temperature of the solid-liquid transition – lay in the range of 75 to 82 °C.

`COc1ccc(-c2cnc(SCC(=O)N[C@@H]3CCC[C@H]3NCCCc3ccc(Cl)cc3)nc2)cc1OC.Cl` (racemic) [Compound 1, (±)-trans-N-{2-[3-(4-Chlorophenyl)propylamino]cyclopentyl}-2-[5-(3,4-dimethoxyphenyl)pyrimidin-2-ylsulfanyl]acetamide hydrochloride] had a melting point of 95.3 to 111.3 °C. Also, in data set [1], the half-maximal inhibitory concentration (IC50) (in general, the concentration needed to halve the response being measured) came out at 18.2 µM.

`COc1ccc(-c2cnc(SCC(=O)N[C@@H]3CCC[C@H]3N(C)CCc3ccc(Cl)cc3)nc2)cc1OC.Cl` (racemic) had a melting point of 123.7 to 125.3 °C.

Take `COc1cc(NC(=O)N[C@@H]2CCC[C@H]2NCCCc2ccc(Cl)cc2)cc(OC)c1OC.Cl` (racemic): the melting point lay in the range of 91.3 to 96 °C.

Molecule `CS(=O)(=O)c1ccc(C(=O)N[C@@H]2CCC[C@H]2NCCCc2ccc(Cl)cc2)cc1.Cl` (racemic) [Compound 2, (±)-trans-N-{2-[3-(4-Chlorophenyl)propylamino]cyclopentyl}-4-methanesulfonylbenzamide hydrochloride] returned a melting point of 192.3 to 196.8 °C. The molecule further came in with a half-inhibitory concentration (IC50) in data set [1] of 6.8 µM.

In turn, `CN(CCc1ccc(Cl)cc1)[C@@H]1CCC[C@H]1NC(=O)c1ccc(S(C)(=O)=O)cc1.Cl` (racemic) had a melting point of 179 to 179.3 °C.

With `COc1ccc(-c2cnc(SCC(=O)N[C@@H]3CCC[C@H]3N(C)CCCc3ccc(Cl)cc3)nc2)cc1OC.Cl` (racemic) [Compound 9, (±)-trans-N-(2-{[3-(4-Chlorophenyl)propyl]methylamino}-cyclopentyl)-2-[5-(3,4-dimethoxyphenyl)pyrimidin-2-ylsulfanyl]acetamide hydrochloride], the melting point lay in the range of 91.5 to 98.5 °C. In addition, the IC50 in data set [1] came to 5.6 µM.

In turn, `CS(=O)(=O)c1ccc(C(=O)N[C@@H]2CCC[C@H]2NCCc2ccc(Cl)cc2)cc1.Cl` (racemic) yielded a melting point of 221.8 to 222.7 °C.

The molecule `COc1ccc(-c2cnc(SCC(=O)N[C@@H]3CCC[C@H]3NCCc3ccc(Cl)cc3)nc2)cc1OC.Cl` (racemic) showed a melting point of 181.3 to 185.6 °C.

Regarding `COc1cc(NC(=O)N[C@@H]2CCC[C@H]2N(C)CCc2ccc(Cl)cc2)cc(OC)c1OC.Cl` (racemic) [Compound 6, (±)-trans-1-(2-{[2-(4-Chlorophenyl)ethyl]methylamino}cyclopentyl)-3-(3,4,5-trimethoxyphenyl)urea hydrochloride], the melting point is 97 to 105 °C. Also, in data set [1], the IC50 was 5.4 µM.

Consider `CN(CCCc1ccc(Cl)cc1)[C@@H]1CCC[C@H]1NC(=O)c1ccc(S(C)(=O)=O)cc1.Cl` (racemic), for which the melting point was 109 to 113 °C.

On to `COc1cc(NC(=O)N[C@@H]2CCC[C@H]2NCCc2ccc(Cl)cc2)cc(OC)c1OC.Cl` (racemic), for which the melting point lay in the range of 97 to 101.5 °C.
